Assay results from US20260199424A1, “METHODS AND COMPOSITIONS FOR IMPROVING VISUAL FUNCTION IN OCULAR DISEASES AND DISORDERS” (priority 2022, published 2026).
Values joined by “and” are separate entries in the source; they are usually repeats but may differ in a detail not shown here. Equal entries are not always repeated. “Also recorded” adds a separate entry of the source. Where two headings read alike, the source gives them in different places. No end group written: not given here.

Legend:
[1] = rabbit, in vivo
Protocol: Body weights were measured and recorded prior to first dose, approximately weekly (for surviving animals through Week 12), and prior to euthanasia. […] Ophthalmic examinations were performed using the Hackett-McDonald Scoring System on Days 0, 7, 14, 28, 90, 97, 151, and 168. Pharmacokinetic analyses were performed on the vitreous humor concentration data.
Seven animals received a repeat IVT dose at 2 mg/mL (0.1 mg/eye) on Day 90.
Vitreous humor, retina, and choroid were collected on days 1, 7, 14, 28, 42, 61, 90, 97, 151, and 168. Eyes were enucleated, snap frozen using liquid nitrogen, and kept on dry ice or frozen at −80° C. until dissected for collection of aqueous humor, vitreous humor, retina, choroid, iris-ciliary body (ICB), and lens.
To homogenize ocular tissue samples, weighed amounts of control bovine vitreous humor, retina, and choroid were homogenized in USA scientific impact resistant microtubes containing 2.8 mm ceramic beads. Unknown rabbit vitreous humor, retina, and choroid samples were homogenized in USA scientific impact resistant microtubes containing 2.8 mm ceramic beads. […]

[2] = minipig, in vivo
Protocol: Seven animals received a repeat IVT dose at 2 mg/mL (0.1 mg/eye) on Day 90. […] Vitreous humor, retina, and choroid were collected on days 1, 7, 14, 28, and 88.

[3] = test system: patients with progressing open angle glaucoma; assay: Multi-dose study in progressing open-angle glaucoma, Humphrey Visual Field analysis; format: in vivo, human
Protocol: Visual function metrics were measured at over two screening time points, a baseline, and at about days 90, 177, 180, and 270. Measures for visual function included visual field analysis pre- and post-treatment with ONL1204.
Patients were part of the study for approximately 39 weeks (270 days). Randomization was be stratified by HVF mean deviation (−5.00 dB to >−10.00 dB and ≤−10.00 dB to −15.00 dB).
FIGS. 3-5 show study and fellow eye data for the changes in mean visual field analysis of clusters in sham, 50 ug, and 100 ug patients. The data represents mean data for each cluster (10 clusters per patient). […] Each cluster is denoted by a rate of change in sensitivity, in dB/yr. The Baseline sensitivity of each cluster is denoted in dB. Positive values indicate an improvement in visual field and/or improving rate of visual field change. FIGS. 6-8 show study and fellow eye data for the changes in mean visual field analysis (unclustered, point specific, pointwise) in sham, 50 ug, and 100 ug patients.

[4] = test system: patients having macular degeneration characterized by geographic atrophy (GA); assay: Study in geographic atrophy (GA) patients, BCVA; format: in vivo, human; conditions: single IVT injection, doses 25 ug and 50 ug as printed
Protocol: Baseline best corrected visual acuity (BCVA) was measured prior to treatment with ONL1204.

MCP1 = assay: Retinal detachment study, cytokine change from administration to surgery: MCP1; format: in vivo, human; conditions: for Percent Change (%) from time of administering ONL1204 to surgery MCP1: individual patients
Protocol: (§1) During the study, ocular fluid samples were also collected at the time of study drug injection and at the time of vitrectomy. These samples were used for pharmacokinetic and pharmacodynamic analyses.
(§2) Patients were enrolled in ascending dose groups. […] Safety visits were conducted one day post-injection and as deemed necessary by the examining Investigator (at least 1 visit every 3 days) until Visit 3. At Visit 3 (3+ days post-injection, in accordance with standard of care) patients underwent surgical repair of their retinal detachment with vitrectomy (with or without scleral buckling) and gas or oil tamponade. At the time of surgery, an undiluted vitreous sample was collected for pharmacokinetic and pharmacodynamics analyses, and an aqueous sample was collected for pharmacodynamic analysis. Additional safety visits were targeted for and generally conducted one day post-surgery, 7 days (±3 days) post-surgery, 14 (±4 days) days post-surgery, and Weeks 6, 9, 12 (±7 days each), and Week 24 (±14 days; study exit).

[5] = test system: patients with retinal detachment; assay: Retinal detachment study, adverse events; format: in vivo, human
Protocol: The primary objective was to determine the Maximum Tolerated Dose (MTD) of a peptide an amino acid sequence […] and the structure of Formula III (ONL1204) and select doses for further clinical studies. During the study, ocular fluid samples were also collected at the time of study drug injection and at the time of vitrectomy. These samples were used for pharmacokinetic and pharmacodynamic analyses.
as §2
Planned determinations of dose limiting toxicity included consideration of the following events: • 1.

ICAM1 = assay: Retinal detachment study, cytokine change from administration to surgery: ICAM1; format: in vivo, human; conditions: for Percent Change (%) from time of administering ONL1204 to surgery ICAM1: individual patients
Protocol: as §1, §2

IL1RA = assay: Retinal detachment study, cytokine change from administration to surgery: IL1RA; format: in vivo, human; conditions: for Percent Change (%) from time of administering ONL1204 to surgery IL1RA: individual patients
Protocol: as §1, §2

IL18 = assay: Retinal detachment study, cytokine change from administration to surgery: IL18; format: in vivo, human; conditions: for Percent Change (%) from time of administering ONL1204 to surgery IL18: individual patients
Protocol: as §1, §2

[6] = test system: patients with retinal detachment; assay: Retinal detachment study, best corrected visual acuity; format: in vivo, human; parameters: key to BCVA Snellen study eye baseline / BCVA Snellen study eye week 9: HM = hand motion; CF = counting fingers; conditions: for BCVA logMAR study eye week 6 / BCVA Snellen study eye week 6: week 6, individual patients; for BCVA logMAR study eye week 9 / BCVA Snellen study eye week 9: week 9, individual patients; for BCVA logMAR study eye week 24 / BCVA Snellen study eye week 24: week 24, individual patients
Protocol: as §1, §2
Therefore, a volume of 0.05 or 0.1 mL was injected into the study eye. Patient participation was approximately 24 weeks (6 months): a single injection treatment and 24 weeks of follow-up.

male rabbit NaIO3 model = assay: Sodium iodate (NaIO3) challenge study, lesion size (area of RPE depigmentation); format: in vivo; conditions: for lesion area versus negative control: NaIO3 challenge Day 4; for mean lesion size smaller compared to negative controls: NaIO3 challenge Day 59
Protocol: Animals were anesthetized with isoflurane vapors to effect. […] No reflux was noted on the dosing record.
Animals were anesthetized with isoflurane vapors to effect.
The resulting area was then measured.

Substance: HHIYLGAVNYIY-NH2 [ONL1204]
- detection in retinal tissue and vitreous humor [1]: detected in retinal tissue as well as the vitreous humor after 168 days
- detection in the vitreous humor [1]: detected in the vitreous humor across all time points analyzed
- detection in the vitreous humor [2]: detected in the vitreous humor across all time points analyzed
- visual field outcomes as measured by Humphrey Visual Field (HVF) analysis ([3]; 50 ug and 100 ug, two IVT injections (day 0, day 90), compared to sham): improvement in visual field outcomes; also recorded: improvement in visual field was generally observed
- visual field benefit in patients having lower baseline sensitivities ([3]; baseline sensitivity equal to or less than −5): benefits of ONL1204 treatment were also observed
- visual outcomes (visual acuity, BCVA) versus baseline [4]: improvement in visual outcomes
- Percent Change (%) from time of administering ONL1204 to surgery MCP1 (MCP1; 25 ug (dose per Table 1)): −41.4% and −6.02% and −35.9%
- Percent Change (%) from time of administering ONL1204 to surgery MCP1 (MCP1; 50 ug (dose per Table 1)): −3.12% and −48.4% and 11.6%
- Percent Change (%) from time of administering ONL1204 to surgery MCP1 (MCP1; 100 ug (dose per Table 1)): −9.5% and 78.5% and 500%
- Percent Change (%) from time of administering ONL1204 to surgery MCP1 (MCP1; 200 ug (dose per Table 1)): −2.4%
- mean change in MCP1 from administration to surgery (MCP1; all patients of Table 7): mean decrease
- severity of adverse events ([5]; 25 ug and 50 ug, study procedure or surgery related): Most were mild
- patients experiencing adverse events ([5]; 4 patients 25 ug and 4 patients 50 ug, single IVT): 7 out of 8
- total adverse events ([5]; 8 patients, 25 ug and 50 ug): 20
- Percent Change (%) from time of administering ONL1204 to surgery ICAM1 (ICAM1; 25 ug (dose per Table 1)): −82.4% and −42.7% and −86.2%
- Percent Change (%) from time of administering ONL1204 to surgery ICAM1 (ICAM1; 50 ug (dose per Table 1)): 64.0% and −100% and 0%
- Percent Change (%) from time of administering ONL1204 to surgery ICAM1 (ICAM1; 100 ug (dose per Table 1)): −43.9% and 24.9% and 22.7%
- Percent Change (%) from time of administering ONL1204 to surgery ICAM1 (ICAM1; 200 ug (dose per Table 1)): 0%
- mean change in ICAM from administration to surgery (ICAM1; all patients of Table 7): mean decrease
- Percent Change (%) from time of administering ONL1204 to surgery IL1RA (IL1RA; 25 ug (dose per Table 1)): −51.0% and −57.4% and −99.3%
- Percent Change (%) from time of administering ONL1204 to surgery IL1RA (IL1RA; 50 ug (dose per Table 1)): −60.0% and −94.4% and −88.3%
- Percent Change (%) from time of administering ONL1204 to surgery IL1RA (IL1RA; 100 ug (dose per Table 1)): 8.5% and −46.1% and −65.2%
- Percent Change (%) from time of administering ONL1204 to surgery IL1RA (IL1RA; 200 ug (dose per Table 1)): −26.3%
- mean change in IL1RA from administration to surgery (IL1RA; all patients of Table 7): mean decrease
- Percent Change (%) from time of administering ONL1204 to surgery IL18 (IL18; 25 ug (dose per Table 1)): −60.5% and −22.5% and −50.8%
- Percent Change (%) from time of administering ONL1204 to surgery IL18 (IL18; 50 ug (dose per Table 1)): 0% (2×) and −100%
- Percent Change (%) from time of administering ONL1204 to surgery IL18 (IL18; 100 ug (dose per Table 1)): −33.7% and 0% and 66.0%
- Percent Change (%) from time of administering ONL1204 to surgery IL18 (IL18; 200 ug (dose per Table 1)): 0%
- mean change in IL18 from administration to surgery (IL18; all patients of Table 7): mean decrease
- BCVA logMAR study eye week 6 ([6]; 25 ug (dose per Table 1)): 0.34 logMAR and 0.18 logMAR and 0.82 logMAR (2×)
- BCVA logMAR study eye week 9 ([6]; 25 ug (dose per Table 1)): 0.14 logMAR and 0.12 logMAR and 0.64 logMAR and 0.78 logMAR
- BCVA logMAR study eye week 24 ([6]; 25 ug (dose per Table 1)): 0.5 logMAR and 0.2 logMAR and 0.68 logMAR and 0.7 logMAR
- BCVA Snellen study eye baseline ([6]; 25 ug single IVT, baseline, individual patients): 20/160 and 20/100 and 20/200 and HM
- BCVA Snellen study eye week 6 ([6]; 25 ug single IVT): 20/40 and 20/32 and 20/125 (2×)
- BCVA Snellen study eye week 9 ([6]; 25 ug single IVT): 20/25 (2×) and 20/100 and 20/125
- BCVA Snellen study eye week 24 ([6]; 25 ug single IVT): 20/60 and 20/32 and 20/100 (2×)
- BCVA logMAR study eye baseline ([6]; 50 ug (dose per Table 1), baseline, individual patients): 3 logMAR and 2 logMAR (3×)
- BCVA logMAR study eye week 6 ([6]; 50 ug (dose per Table 1)): 0.46 logMAR and 0.38 logMAR (2×) and 0.52 logMAR
- BCVA logMAR study eye week 9 ([6]; 50 ug (dose per Table 1)): 0.6 logMAR and 0.56 logMAR and 0.34 logMAR
- BCVA logMAR study eye week 24 ([6]; 50 ug (dose per Table 1)): 0.76 logMAR and 0.2 logMAR and 0.64 logMAR and 0.34 logMAR
- BCVA Snellen study eye baseline ([6]; 50 ug single IVT, baseline, individual patients): HM and CF (3×)
- BCVA Snellen study eye week 6 ([6]; 50 ug single IVT): 20/50 (2×) and 20/80
- BCVA Snellen study eye week 9 ([6]; 50 ug single IVT): 20/80 (2×) and 20/50
- BCVA Snellen study eye week 24 ([6]; 50 ug single IVT): 20/125 and 20/32 and 20/80 and 20/50
- BCVA logMAR study eye week 6 ([6]; 100 ug (dose per Table 1)): 0.8 logMAR and 0.7 logMAR and 1 logMAR and 1.6 logMAR
- BCVA logMAR study eye week 24 ([6]; 100 ug (dose per Table 1)): 0.5 logMAR and 0.7 logMAR and 1.3 logMAR and 0.6 logMAR
- BCVA Snellen study eye baseline ([6]; 100 ug single IVT, baseline, individual patients): HM (2×) and 20/100 and 20/200
- BCVA Snellen study eye week 6 ([6]; 100 ug single IVT): 20/125 and 20/100 and 20/200 and 20/800
- BCVA Snellen study eye week 9 ([6]; 100 ug single IVT): 20/200 and 20/80 and HM and 20/400
- BCVA Snellen study eye week 24 ([6]; 100 ug single IVT): 20/63 and 20/100 and 20/400 and 20/80
- BCVA logMAR study eye week 6 ([6]; 200 ug (dose per Table 1)): 0.4 logMAR and 0.7 logMAR
- BCVA logMAR study eye week 9 ([6]; 200 ug (dose per Table 1)): 0.36 logMAR and 0.6 logMAR
- BCVA logMAR study eye week 24 ([6]; 200 ug (dose per Table 1)): 0.2 logMAR
- BCVA Snellen study eye baseline ([6]; 200 ug single IVT, baseline, individual patients): 20/160 and HM
- BCVA Snellen study eye week 6 ([6]; 200 ug single IVT): 20/50 and 20/100
- BCVA Snellen study eye week 9 ([6]; 200 ug single IVT): 20/40 and 20/80
- BCVA Snellen study eye week 24 ([6]; 200 ug single IVT): 20/32
- summary statistics for all patients, mean (BCVA logMAR), Week 9 ([6]; all doses, n 13, week 9): 0.78
- summary statistics for all patients, mean (BCVA logMAR), Week 24 ([6]; all doses, n 13, week 24): 0.56
- summary statistics for all patients, mean (BCVA logMAR), Baseline ([6]; all doses, n 14, baseline): 1.86
- summary statistics for all patients, mean (BCVA logMAR), Week 6 ([6]; all doses, n 14, week 6): 0.65
- visual outcomes (visual acuity) ([6]; all patients receiving 25 ug and 50 ug): improvement in visual outcomes
- mean lesion size across challenge time points (male rabbit NaIO3 model; 25 ug and 100 ug per eye IVT Day 0): substantive reduction in mean lesion size
- lesion area versus negative control (male rabbit NaIO3 model; 25 ug per eye IVT Day 0): significantly lower than negative control
- mean lesion size smaller compared to negative controls (male rabbit NaIO3 model; 25 ug per eye IVT Day 0): 40%
- lesion area versus negative control (male rabbit NaIO3 model; 100 ug per eye IVT Day 0): significantly lower than negative control
- lesion size versus negative controls and 25 ug (male rabbit NaIO3 model; 100 ug per eye IVT Day 0, NaIO3 challenge Day 14): significantly smaller lesion size
- lesion size versus negative control and 25 ug (male rabbit NaIO3 model; 100 ug per eye IVT Day 0, NaIO3 challenge Day 28): significantly smaller lesion size
- mean lesion size smaller compared to negative controls (male rabbit NaIO3 model; 100 ug per eye IVT Day 0): 50%
